Assays:
[1] = Phase I safety: adverse events (CTCAE v3.0)
Procedure: Adverse events were recorded and graded according to the Common Terminology Criteria for Adverse Events, version 3.0.
Physical examinations, urinalysis, ECG, and laboratory evaluations (including serum chemistry and hematology) were performed at screening and on days 1, 2, 8, 15, 22, and 29 of cycle 1; on days 1, 15, and 29 of subsequent cycles; and at the end-of-treatment follow-up visit (14 days after the last dose). Adverse events were evaluated on days 2, 8, 15, and 22 of cycle 1; on days 1, 15, and 29 of every subsequent cycle; and at the end-of-treatment follow-up visit.

[2] = target: fibroblast growth factor receptor-1; set-up: method as in PMID 22148921; conditions: cited from earlier work
[3] = system: advanced, relapsed/refractory solid tumors; assay: Tumor response (RECIST) in phase I patients; type: in vivo, human
Source text: The primary measures were MTD and DLTs. MTD was defined as the highest dose at which one-third or fewer of patients in a cohort experienced a DLT, which included grade ≥ 2 proteinuria, grade ≥ 3 nonhematologic toxicity (excluding hypertension and pain), grade ≥ 3 thrombocytopenia with bleeding, or grade 4 hematologic toxicity that was not clearly due to progressive cancer. Secondary measures included the pharmacokinetics of CEP-11981 after a single dose and multiple doses, the pharmacokinetic-pharmacodynamic profile of CEP-11981, safety, and preliminary efficacy. The efficacy endpoint was the proportion of patients who achieved complete or partial response on study (minimum of 6 weeks) according to Response Evaluation Criteria in Solid Tumors (RECIST) guidelines.

[4] = Plasma pharmacokinetics in patients, single and multiple doses; type: in vivo, human
Procedure: Pharmacokinetic parameters calculated after multiple doses included AUC0-t, Cmax, Tmax, and t½, and observed accumulation ratio (Robs). […] Pharmacodynamics was assessed by VEGFR-2/KDR inhibitory activity in response to CEP-11981 treatment. […] The venous blood samples for pharmacokinetic-pharmacodynamic analysis were collected on days 1 and 15 of dosing during cycle 1 immediately before dose administration and at 1 h postdose, and on day 43. At each draw, 2 samples were obtained in 6-mL sodium heparinized vacutainers. Plasma was obtained and stored at −70 °C until shipment to the sponsor for analysis.

[5] = of 37 patients evaluated for tumor response
[6] = multiple doses (day 15, cycle 1), oral once daily, 3.0 mg/m^2, n = 3
[7] = multiple doses (day 15, cycle 1), oral once daily, 4.2 mg/m^2, n = 3
[8] = multiple doses (day 15, cycle 1), oral once daily, 5.9 mg/m^2, n = 5
[9] = multiple doses (day 15, cycle 1), oral once daily, 11.8 mg/m^2, n = 3
[10] = multiple doses (day 15, cycle 1), oral once daily, 19.7 mg/m^2, n = 3
[11] = multiple doses (day 15, cycle 1), oral once daily, 29.6 mg/m^2, n = 4
[12] = multiple doses (day 15, cycle 1), oral once daily, 41.4 mg/m^2, n = 3

11-(2-methylpropyl)-12,13-dihydro-2-methyl-8-(pyrimidin-2-ylamino)-4H-indazolo[5,4-a]pyrrolo[3,4-c]carbazol-4-one [CEP-11981]
Grade 3/4 adverse events ([1]; 3.0 mg/m^2 n = 3): • Abdominal pain • Arthralgia • Back pain
Grade 3/4 adverse events ([1]; 4.2 mg/m^2 n = 3): • Abdominal pain
Grade 3/4 adverse events ([1]; 5.9 mg/m^2 n = 5): • Hyperkalemia
Grade 3/4 adverse events ([1]; 19.7 mg/m^2 n = 3): • Back pain • Hypokalemia • Hyponatremia • Lumbar vertebral fracture
Grade 3/4 adverse events ([1]; 55.0 mg/m^2 n = 5): • Abdominal pain • Anxiety • Arthralgia • Back pain • Cellulitis • Constipation • Hypokalemia • Impaired healing • Musculo-skeletal pain • Peripheral edema • Scrotal edema • Somnolence
Grade 3/4 adverse events ([1]; 73.0 mg/m^2 n = 3): • Anemia • Leukopenia • Diarrhea • Decreased appetite • Musculo-skeletal pain • Neck pain • Headache • Pleural effusion
Grade 4 leukopenia ([1]; 126.6 mg/m^2 cohort): 1 patient
Grade 4 neutropenia ([1]; 126.6 mg/m^2 cohort): 1 patient
Grade 3/4 adverse events ([1]; 126.6 mg/m^2 n = 2, ^b treatment-related): • Neutropenia^b • ECG change
Grade 3/4 abdominal pain ([1]; across all groups): 7%
Grade 3/4 back pain ([1]; across all groups): 7%
Grade 3/4 lymphopenia ([1]; across all groups): 19%
Grade 3/4 neutropenia ([1]; across all groups): 7%
Patients with ECG changes ([1]; all cohorts): 2%
Patients with hypertension ([1]; all cohorts): 2%
Abdominal pain, any grade ([1]; all cohorts, N = 43): 30%
Back pain, any grade ([1]; all cohorts, N = 43): 28%
Constipation, any grade ([1]; all cohorts, N = 43): 28%
Deaths during the study ([1]; all cohorts, N = 43): No deaths occurred
Decreased appetite, any grade ([1]; all cohorts, N = 43): 33%
Diarrhea, any grade ([1]; all cohorts, N = 43): 33%
Dizziness, any grade ([1]; all cohorts, N = 43): 28%
Dyspnea, any grade ([1]; all cohorts, N = 43): 23%
Fatigue, any grade ([1]; all cohorts, N = 43): 51%
Headache, any grade ([1]; all cohorts, N = 43): 28%
Nausea, any grade ([1]; all cohorts, N = 43): 47%
Patients with adverse events possibly, probably, or definitely related to study drug ([1]; all cohorts, N = 43): 88.3%
Patients with grade 3 adverse events ([1]; all cohorts, N = 43): 32.6%
Patients with grade 3 or 4 adverse events ([1]; all cohorts, N = 43): 37%
Patients with grade 3 or 4 laboratory hematologic toxicities ([1]; all cohorts, N = 43): 18.6%
Patients with grade 4 adverse events ([1]; all cohorts, N = 43): 4.7%
Patients with ≥ 1 adverse event ([1]; all cohorts, N = 43): 43 patients
Serious adverse events ([1]; all cohorts, N = 43): 12 patients
Vomiting, any grade ([1]; all cohorts, N = 43): 28%
IC50 [2]: 0.013 µM
Complete or partial response (RECIST) ([3]; all cohorts): no enrolled patients had complete or partial response
Frequency of stable disease ([3]; cohorts receiving ≤ 55.0 mg/m^2 (11 of 29 patients)): 37.9%
Frequency of stable disease ([3]; cohorts receiving ≥ 73.0 mg/m^2 (8 of 14 patients)): 57.1%
Patients with stable disease at ≥ 6 weeks ([3]; intent-to-treat population (19 of 43 patients)): 44%
Patients with disease progression [3, 5]: 18 patients
Patients with stable disease at ≥ 6 weeks [3, 5]: 51%
Mean (SD) AUC0-24 ([4]; human, in vivo, po, 97.4 mg/m2): 5,320.4 (1,459.11) ng•hr/mL
Mean (SD) Cmax ([4]; human, in vivo, po, 97.4 mg/m2): 526.4 (185.68) ng/mL
Mean (SD) t½ ([4]; human, in vivo, po, 97.4 mg/m2): 10.3 (4.59) hr
Median (range) Tmax ([4]; human, in vivo, po, 97.4 mg/m2): 4.0 (2.0–6.0) hr
Mean (SD) AUCτ [4, 6]: 165.3 (82.98) ng•hr/mL
Mean (SD) Cmax [4, 6]: 16.1 (2.35) ng/mL
Mean (SD) t½ [4, 6]: 8.0 (2.92) hr
Median (range) Tmax [4, 6]: 2.9 (1.5–4.0) hr
Mean (SD) AUCτ [4, 7]: 201.7 (46.72) ng•hr/mL
Mean (SD) Cmax [4, 7]: 24.3 (9.23) ng/mL
Mean (SD) t½ [4, 7]: 9.9 (4.55) hr
Median (range) Tmax [4, 7]: 3.9 (1.5–4.0) hr
Mean (SD) AUCτ [4, 8]: 278.0 (69.45) ng•hr/mL
Mean (SD) Cmax [4, 8]: 32.4 (8.40) ng/mL
Mean (SD) t½ [4, 8]: 6.6 (1.51) hr
Median (range) Tmax [4, 8]: 3.0 (1.3–6.0) hr
Mean (SD) AUCτ [4, 9]: 763.7 (128.14) ng•hr/mL
Mean (SD) Cmax [4, 9]: 98.1 (5.64) ng/mL
Mean (SD) t½ [4, 9]: 12.3 (9.70) hr
Median (range) Tmax [4, 9]: 2.0 (1.6–2.1) hr
Mean (SD) AUCτ [4, 10]: 1,102.3 (734.79) ng•hr/mL
Mean (SD) Cmax [4, 10]: 128.5 (98.34) ng/mL
Mean (SD) t½ [4, 10]: 5.4 (1.20) hr
Median (range) Tmax [4, 10]: 4.0 (1.5–4.0) hr
Mean (SD) AUCτ [4, 11]: 2,923.5 (2,939.79) ng•hr/mL
Mean (SD) Cmax [4, 11]: 218.8 (130.35) ng/mL
Mean (SD) t½ [4, 11]: 8.7 (5.74) hr
Median (range) Tmax [4, 11]: 4.5 (2.0–8.0) hr
Mean (SD) AUCτ [4, 12]: 3,256.0 (1,816.44) ng•hr/mL
Mean (SD) Cmax [4, 12]: 412.6 (93.94) ng/mL

From publication PMC4226840, “An open-label study to determine the maximum tolerated dose of the multitargeted tyrosine kinase inhibitor CEP-11981 in patients with advanced cancer” (Investigational New Drugs, 2014)
